Assay results published in publication PMC3762675 (Chembiochem : a European journal of chemical biology, 2013).

Biological target: p38 and MK2 (Homo sapiens, UniProt Q16539)
Type: binding
Conditions: competitor 10 μM, LTR 2 500 nM, p38 400 nM, MK2 400 nM, UV 30 min

p38 and MK2, sequence (Q16539 whole entry): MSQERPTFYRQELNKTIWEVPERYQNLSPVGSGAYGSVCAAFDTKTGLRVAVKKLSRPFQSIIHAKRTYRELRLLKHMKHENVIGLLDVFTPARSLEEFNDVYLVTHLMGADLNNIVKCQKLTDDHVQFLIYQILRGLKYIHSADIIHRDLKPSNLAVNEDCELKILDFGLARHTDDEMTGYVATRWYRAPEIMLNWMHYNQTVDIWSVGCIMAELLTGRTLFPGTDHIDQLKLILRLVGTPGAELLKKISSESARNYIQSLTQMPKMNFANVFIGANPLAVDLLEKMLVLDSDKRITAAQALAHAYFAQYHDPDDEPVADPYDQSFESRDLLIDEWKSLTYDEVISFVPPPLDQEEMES
p38 and MK2, sequence (P49137 whole entry partner): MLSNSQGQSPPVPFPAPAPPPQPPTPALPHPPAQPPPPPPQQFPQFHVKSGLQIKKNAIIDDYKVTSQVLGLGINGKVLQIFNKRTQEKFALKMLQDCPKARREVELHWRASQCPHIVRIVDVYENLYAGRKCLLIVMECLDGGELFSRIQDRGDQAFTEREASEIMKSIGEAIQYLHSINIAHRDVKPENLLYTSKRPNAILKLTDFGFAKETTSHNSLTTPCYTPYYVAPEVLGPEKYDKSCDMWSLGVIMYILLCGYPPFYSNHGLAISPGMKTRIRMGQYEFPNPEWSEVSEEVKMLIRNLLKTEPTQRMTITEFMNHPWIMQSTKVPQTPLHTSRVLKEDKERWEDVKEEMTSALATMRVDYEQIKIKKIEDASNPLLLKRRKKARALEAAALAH

blocking of labeling of p38 and MK2 | Structure (SMILES)
does not completely block labeling | Cc1nc(Nc2ncc(C(=O)Nc3c(C)cccc3Cl)s2)cc(N2CCN(CCO)CC2)n1 [dasatinib]
do not block labeling | C#Cc1cccc(Nc2ncnc3cc(OCCOC)c(OCCOC)cc23)c1 [erlotinib]
